From ChEMBL document CHEMBL5352437, “Identification and immunological evaluation of novel TLR2 agonists through structural optimization of Diprovocim” (Eur J Med Chem, 2022)
Blank lines part the entries; values can stand above or below the molecule they belong to. The source made the active and inactive calls. The rule behind the calls is not given here.

Key:
[1] = biological target: T1, Toll-like receptor 2 (Homo sapiens, UniProt O60603); test: Agonist activity at human TLR2 expressed in HEK-Blue hTLR2 cells as SEAP expression incubated for 16 hrs by SEAP-based plate reader analysis; type: cell-based
[2] = Cytotoxicity against human HEK-Blue hTLR2 cells assessed as reduction in cell viability at 100 uM incubated for 24 hrs by CCK8 assay; type: toxicity, cell-based; settings: hek-blue htlr2, 24 h
[3] = system: THP-1; test: Induction of IL1beta production in human PMA-differentiated THP-1 cells supernatant incubated for 4 hrs by ELISA method; type: functional, cell-based
[4] = system: THP-1; test: Induction of p38 phosphorylation in human PMA-differentiated THP-1 cells at 100 nM incubated up to 120 mins by Western blotting analysis; type: functional, cell-based
[5] = biological target: T1, Toll-like receptor 2; test: Agonist activity at human TLR2 expressed in HEK-Blue hTLR2 cells assessed as activation of TLR2-triggered SEAP signaling at 0.1 uM incubated for 16 hrs in presence of anti-hTLR1 by SEAP-based plate reader analysis; type: cell-based
[6] = system: THP-1; test: Induction of IL6 production in human PMA-differentiated THP-1 cells supernatant incubated for 4 hrs by ELISA method; type: functional, cell-based
[7] = system: THP-1; test: Upregulation of MyD88 protein expression in human PMA-differentiated THP-1 cells at 100 nM by Western blotting analysis; type: functional, cell-based; settings: time 0-120 min, TDE = time-dependent effect
[8] = system: THP-1; test: Induction of JNK phosphorylation in human PMA-differentiated THP-1 cells at 100 nM incubated up to 120 mins by Western blotting analysis; type: functional, cell-based
[9] = system: THP-1; test: Induction of p65 phosphorylation in human PMA-differentiated THP-1 cells at 100 nM incubated up to 120 mins by Western blotting analysis; type: functional, cell-based
[10] = biological target: T1, Toll-like receptor 2; test: Agonist activity at human TLR2 expressed in HEK-Blue hTLR2 cells assessed as activation of TLR2-triggered SEAP signaling at 0.1 uM incubated for 16 hrs in presence of anti-hTLR2 by SEAP-based plate reader analysis; type: cell-based
[11] = system: THP-1; test: Cytotoxicity against human THP1 cells assessed as reduction in cell viability at 100 uM incubated for 24 hrs by CCK8 assay; type: toxicity, cell-based; settings: thp-1, 24 h
[12] = system: THP-1; test: Induction of TNFalpha production in human PMA-differentiated THP-1 cells supernatant incubated for 4 hrs by ELISA method; type: functional, cell-based
[13] = biological target: T1, Toll-like receptor 2; test: Agonist activity at human TLR2 expressed in HEK-Blue hTLR2 cells assessed as activation of TLR2-triggered SEAP signaling up to 10 uM incubated for 16 hrs by SEAP-based plate reader analysis; type: cell-based; settings: filed as agonist

T1 sequence (O60603 whole entry): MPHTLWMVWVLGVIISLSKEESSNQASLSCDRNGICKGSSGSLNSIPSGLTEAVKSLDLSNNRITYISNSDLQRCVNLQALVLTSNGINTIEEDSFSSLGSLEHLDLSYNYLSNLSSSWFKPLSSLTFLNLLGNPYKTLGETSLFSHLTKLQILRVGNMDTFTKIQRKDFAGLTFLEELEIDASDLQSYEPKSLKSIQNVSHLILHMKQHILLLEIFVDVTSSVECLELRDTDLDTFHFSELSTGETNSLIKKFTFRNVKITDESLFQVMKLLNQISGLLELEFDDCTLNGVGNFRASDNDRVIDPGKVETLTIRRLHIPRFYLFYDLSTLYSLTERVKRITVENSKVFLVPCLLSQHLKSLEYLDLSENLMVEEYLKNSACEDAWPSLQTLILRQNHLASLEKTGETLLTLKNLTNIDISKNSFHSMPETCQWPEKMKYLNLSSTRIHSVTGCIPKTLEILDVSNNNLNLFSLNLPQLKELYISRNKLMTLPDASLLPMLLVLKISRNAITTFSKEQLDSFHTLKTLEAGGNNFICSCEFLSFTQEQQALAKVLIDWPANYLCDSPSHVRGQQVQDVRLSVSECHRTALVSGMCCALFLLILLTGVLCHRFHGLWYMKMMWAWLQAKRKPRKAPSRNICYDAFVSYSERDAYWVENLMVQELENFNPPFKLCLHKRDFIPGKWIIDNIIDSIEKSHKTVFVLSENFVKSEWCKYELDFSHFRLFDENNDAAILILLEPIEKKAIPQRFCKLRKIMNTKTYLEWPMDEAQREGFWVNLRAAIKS

Compound: CC(C)CC1CN(C(=O)c2ccc(C(=O)N3C[C@@H](C(=O)N[C@H]4C[C@@H]4c4ccccc4)[C@H](C(=O)N[C@H]4C[C@@H]4c4ccccc4)C3)cc2)CC1C(=O)N[C@H]1C[C@@H]1c1ccccc1 (stereo not given in full)
EC50 [1]: 286 nM

Compound: CC(C)C1CN(C(=O)c2ccc(C(=O)N3CC(C(C)C)[C@H](C(=O)N[C@H]4C[C@@H]4c4ccccc4)C3)cc2)CC1C(=O)N[C@H]1C[C@@H]1c1ccccc1 (stereo not given in full)
EC50 [1]: > 5000 nM

Compound: CCC1CN(C(=O)c2ccc(C(=O)N3C[C@@H](C(=O)N[C@H]4C[C@@H]4c4ccccc4)[C@H](C(=O)N[C@H]4C[C@@H]4c4ccccc4)C3)cc2)CC1C(=O)N[C@H]1C[C@@H]1c1ccccc1 (stereo not given in full)
EC50 [1]: 514 nM

Compound: CCCC1CN(C(=O)c2ccc(C(=O)N3C[C@@H](C(=O)N[C@H]4C[C@@H]4c4ccccc4)[C@H](C(=O)N[C@H]4C[C@@H]4c4ccccc4)C3)cc2)CC1C(=O)N[C@H]1C[C@@H]1c1ccccc1 (stereo not given in full)
EC50 [1]: 107 nM

Compound: O=C(N[C@H]1C[C@@H]1c1ccccc1)C1CN(C(=O)c2ccc(C(=O)N3C[C@@H](C(=O)N[C@H]4C[C@@H]4c4ccccc4)[C@H](C(=O)N[C@H]4C[C@@H]4c4ccccc4)C3)cc2)C1
EC50 [1]: > 5000 nM

Compound: CCCCC1CN(C(=O)c2ccc(C(=O)N3CC(CCCC)[C@H](C(=O)N[C@H]4C[C@@H]4c4ccccc4)C3)cc2)CC1C(=O)N[C@H]1C[C@@H]1c1ccccc1 (stereo not given in full)
EC50 [1]: 1500 nM

Compound: CCCC[C@@H]1CN(C(=O)c2ccc(C(=O)N3C[C@@H](C(=O)N[C@H]4C[C@@H]4c4ccccc4)[C@H](C(=O)N[C@H]4C[C@@H]4c4ccccc4)C3)cc2)C[C@H]1C(=O)N[C@H]1C[C@@H]1c1ccccc1
Activity [2]: Non-Toxic
Activity [3]: Dose-Dependent Effect
Activity [4]: Active
Activity [5]: inactive
Activity [6]: Dose-Dependent Effect
Activity [7]: Tde
Activity [8]: Active
Activity [9]: Active
Activity [10]: inactive
Activity [11]: Non-Toxic
Activity [12]: Dose-Dependent Effect
EC50 [1]: 39 nM
Activity [13]: Active

Compound: CCC1CN(C(=O)c2ccc(C(=O)N3CC(CC)[C@H](C(=O)N[C@H]4C[C@@H]4c4ccccc4)C3)cc2)CC1C(=O)N[C@H]1C[C@@H]1c1ccccc1 (stereo not given in full)
EC50 [1]: > 5000 nM

Compound: CCC[C@@H]1CN(C(=O)c2ccc(C(=O)N3C[C@@H](C(=O)N[C@H]4C[C@@H]4c4ccccc4)[C@H](C(=O)N[C@H]4C[C@@H]4c4ccccc4)C3)cc2)C[C@H]1C(=O)N[C@H]1C[C@@H]1c1ccccc1
EC50 [1]: 177 nM

Compound: CC1CN(C(=O)c2ccc(C(=O)N3C[C@@H](C(=O)N[C@H]4C[C@@H]4c4ccccc4)[C@H](C(=O)N[C@H]4C[C@@H]4c4ccccc4)C3)cc2)CC1C(=O)N[C@H]1C[C@@H]1c1ccccc1 (stereo not given in full)
EC50 [1]: 700 nM

Compound: CC(C)C1CN(C(=O)c2ccc(C(=O)N3C[C@@H](C(=O)N[C@H]4C[C@@H]4c4ccccc4)[C@H](C(=O)N[C@H]4C[C@@H]4c4ccccc4)C3)cc2)CC1C(=O)N[C@H]1C[C@@H]1c1ccccc1 (stereo not given in full)
EC50 [1]: 702 nM

Compound: CCC[C@H]1CN(C(=O)c2ccc(C(=O)N3C[C@@H](C(=O)N[C@H]4C[C@@H]4c4ccccc4)[C@H](C(=O)N[C@H]4C[C@@H]4c4ccccc4)C3)cc2)C[C@@H]1C(=O)N[C@H]1C[C@@H]1c1ccccc1
EC50 [1]: 87 nM

Continued, in another order:

EC50 [1]: > 5000 nM
Compound: CC(C)CC1CN(C(=O)c2ccc(C(=O)N3CC(CC(C)C)[C@H](C(=O)N[C@H]4C[C@@H]4c4ccccc4)C3)cc2)CC1C(=O)N[C@H]1C[C@@H]1c1ccccc1 (stereo not given in full)

EC50 [1]: > 5000 nM
Compound: CC1CN(C(=O)c2ccc(C(=O)N3CC(C)[C@H](C(=O)N[C@H]4C[C@@H]4c4ccccc4)C3)cc2)CC1C(=O)N[C@H]1C[C@@H]1c1ccccc1 (stereo not given in full)

Activity [5]: inactive
Activity [10]: inactive
EC50 [1]: 35 nM
Activity [13]: Active
Compound: CCCC[C@H]1CN(C(=O)c2ccc(C(=O)N3C[C@@H](C(=O)N[C@H]4C[C@@H]4c4ccccc4)[C@H](C(=O)N[C@H]4C[C@@H]4c4ccccc4)C3)cc2)C[C@@H]1C(=O)N[C@H]1C[C@@H]1c1ccccc1
Activity [2]: Non-Toxic
Activity [3]: Dose-Dependent Effect
Activity [4]: Active
Activity [6]: Dose-Dependent Effect
Activity [7]: Tde
Activity [8]: Active
Activity [9]: Active
Activity [11]: Non-Toxic
Activity [12]: Dose-Dependent Effect

EC50 [1]: > 5000 nM
Compound: O=C(N[C@H]1C[C@@H]1c1ccccc1)[C@H]1CCN(C(=O)c2ccc(C(=O)N3C[C@@H](C(=O)N[C@H]4C[C@@H]4c4ccccc4)[C@H](C(=O)N[C@H]4C[C@@H]4c4ccccc4)C3)cc2)C1

EC50 [1]: 37 nM
Compound: CCCCC1CN(C(=O)c2ccc(C(=O)N3C[C@@H](C(=O)N[C@H]4C[C@@H]4c4ccccc4)[C@H](C(=O)N[C@H]4C[C@@H]4c4ccccc4)C3)cc2)CC1C(=O)N[C@H]1C[C@@H]1c1ccccc1 (stereo not given in full)

EC50 [1]: > 5000 nM
Compound: O=C(N[C@H]1C[C@@H]1c1ccccc1)C1CN(C(=O)c2ccc(C(=O)N3C[C@@H](C(=O)N[C@H]4C[C@@H]4c4ccccc4)[C@H](C(=O)N[C@H]4C[C@@H]4c4ccccc4)C3)cc2)CC1CO (stereo not given in full)

EC50 [1]: > 5000 nM
Compound: CCCC1CN(C(=O)c2ccc(C(=O)N3CC(CCC)[C@H](C(=O)N[C@H]4C[C@@H]4c4ccccc4)C3)cc2)CC1C(=O)N[C@H]1C[C@@H]1c1ccccc1 (stereo not given in full)

EC50 [1]: > 5000 nM
Compound: O=C(N[C@H]1C[C@@H]1c1ccccc1)C1CN(C(=O)c2ccc(C(=O)N3C[C@@H](C(=O)N[C@H]4C[C@@H]4c4ccccc4)[C@H](C(=O)N[C@H]4C[C@@H]4c4ccccc4)C3)cc2)CC1CF (stereo not given in full)

EC50 [1]: > 5000 nM
Compound: O=C(N[C@H]1C[C@@H]1c1ccccc1)C1CCN(C(=O)c2ccc(C(=O)N3C[C@@H](C(=O)N[C@H]4C[C@@H]4c4ccccc4)[C@H](C(=O)N[C@H]4C[C@@H]4c4ccccc4)C3)cc2)CC1
